Data published in paper PMC12040169 (PLOS Biology, 2025).

assay: in vitro; conditions: human, hela cells, % viability

Point of comparison: `CN1CCC(N(C)C(=O)NCCCN2CCCC2=O)C1` (centres unmarked) [CBK156021], viability at 28.5 h, 10 µM 92.3%. Against it:
- COc1ccc2[nH]cc(CCNC(=O)N(C)C3CCN(C)C3)c2c1 (centres unmarked) [CBK156004] — higher, 112%
- CN1CCC(N(C)C(=O)NCc2ccc(C#N)cc2)C1 (centres unmarked) [CBK156005] — lower, 89.3%
- COc1ccc(CCNC(=O)N(C)C2CCN(C)C2)cc1OC (centres unmarked) [CBK156007] — higher, 97.9%
- CN1CCC(N(C)C(=O)NCCc2c[nH]c3ccccc23)C1 (centres unmarked) [CBK156012] — lower, 85.4%
- CN1CCC(N(C)C(=O)NCCOc2ccccc2)C1 (centres unmarked) [CBK156018] — higher, 107%
- COc1ccc(CNC(=O)N(C)C2CCN(C)C2)cc1OC (centres unmarked) [CBK156020] — higher, 97.6%
- Cc1cc(CNC(=O)N2CCCC(CO)C2)no1 (centres unmarked) [CBK156028] — higher, 94.5%
- O=C(NCc1cccc(C(F)(F)F)c1)N1CCCC(CO)C1 (centres unmarked) [CBK156033] — lower, 89.5%
- O=C(NCc1ccc2c(c1)OCO2)N1CCCC(CO)C1 (centres unmarked) [CBK156034] — higher, 104%
- O=C(NCc1cccc2ccccc12)N1CCCC(CO)C1 (centres unmarked) [CBK156035] — higher, 112%
- O=C(NC(c1ccccc1)c1ccccc1)N1CCCC(CO)C1 (centres unmarked) [CBK156036] — higher, 95.4%
- N#Cc1ccc(CNC(=O)N2CCCC(CO)C2)cc1 (centres unmarked) [CBK156043] — higher, 94.3%
- O=C(Nc1ccc2[nH]ccc2c1)N1CCCC(CO)C1 (centres unmarked) [CBK156044] — lower, 86.8%
- CC(=O)Nc1cccc(NC(=O)N2CCCC(CO)C2)c1 (centres unmarked) [CBK156049] — higher, 108%
- O=C(NCc1c(Cl)cccc1Cl)N1CCCC(CO)C1 (centres unmarked) [CBK156054] — higher, 95.7%
- O=C(NCCOc1ccccc1)N1CCCC(CO)C1 (centres unmarked) [CBK156058] — higher, 99.6%
- O=C1CCCN1CCCNC(=O)N1CCCC(CO)C1 (centres unmarked) [CBK156063] — higher, 94.3%
- CC(NC(=O)N1CCCC(CO)C1)c1ccccc1 (centres unmarked) [CBK156066] — lower, 87.1%
- O=C(Nc1cccnc1)N1CCCC(CO)C1 (centres unmarked) [CBK156068] — higher, 92.4%
- O=C(O)C1CCN(C(=O)NCc2ccc(F)cc2)CC1 [CBK156070] — higher, 117%
- COc1cc(NC(=O)N2CCC(C(=O)O)CC2)cc(OC)c1OC [CBK156076] — higher, 97.8%
- Cc1ccc(NC(=O)N2CCC(C(=O)O)CC2)cc1 [CBK156077] — higher, 105%
- CS(=O)(=O)c1ccc(-c2ccc3c(c2)C(=O)NC(C2CCN(C(=O)OCc4ccccc4)CC2)O3)cc1 (centres unmarked) [CBK156087] — higher, 98.1%
- CN1CCC(N2CCN(C(=O)NCC(c3ccccc3)c3ccccc3)CC2)CC1 [CBK156096] — higher, 92.5%
- CN1CCC(N2CCN(C(=O)NCCOc3ccccc3)CC2)CC1 [CBK156098] — lower, 86.9%
- CN1CCC(N2CCN(C(=O)NC3CCc4ccccc43)CC2)CC1 (centres unmarked) [CBK156110] — higher, 106%
- O=C(c1cccnc1NCc1ccc2c(c1)OCO2)N1CCNCC1 [CBK156112T] — higher, 104%
- CCN(CC)C(=O)C1CCCN(C(=O)NCCCN2CCN(C)CC2)C1 (centres unmarked) [CBK156115] — lower, 89.7%
- CCN(CC)C(=O)C1CCCN(C(=O)NCCCSC)C1 (centres unmarked) [CBK156118] — higher, 95.1%
- CCN(CC)C(=O)C1CCCN(C(=O)NCc2ccc(Cl)c(Cl)c2)C1 (centres unmarked) [CBK156119] — higher, 98.8%
- CCN(CC)C(=O)C1CCCN(C(=O)NCCc2c[nH]cn2)C1 (centres unmarked) [CBK156124] — higher, 96.9%
- CCN(CC)C(=O)C1CCCN(C(=O)NC(c2ccccc2)c2ccccc2)C1 (centres unmarked) [CBK156125] — higher, 106%
- CCN(CC)C(=O)C1CCCN(C(=O)NCc2ccc(C#N)cc2)C1 (centres unmarked) [CBK156132] — higher, 102%
- CCN(CC)C(=O)C1CCCN(C(=O)Nc2ccc3[nH]ccc3c2)C1 (centres unmarked) [CBK156133] — higher, 98%
- CCN(CC)C(=O)C1CCCN(C(=O)NCCc2ccc(OC)c(OC)c2)C1 (centres unmarked) [CBK156134] — higher, 97.7%
- CCN(CC)C(=O)C1CCCN(C(=O)Nc2ccc3c(c2)OCCO3)C1 (centres unmarked) [CBK156135] — the same, 92.3%
- CCN(CC)C(=O)C1CCCN(C(=O)Nc2ccc(Cl)cc2)C1 (centres unmarked) [CBK156136] — lower, 90.1%
- CCN(CC)C(=O)C1CCCN(C(=O)NCCc2c[nH]c3ccccc23)C1 (centres unmarked) [CBK156140] — higher, 99.8%
- CCN(CC)C(=O)C1CCCN(C(=O)NCC(c2ccccc2)c2ccccc2)C1 (centres unmarked) [CBK156145] — higher, 94.4%
- CCN(CC)CCCNC(=O)N1CCCC(C(=O)N(CC)CC)C1 (centres unmarked) [CBK156149] — higher, 94.1%
- CCOC(=O)CCCNC(=O)N1CCCC(C(=O)N(CC)CC)C1 (centres unmarked) [CBK156158] — the same, 92.3%
- CCOC(=O)N1CCC(NC(=O)N2CCCC(C(=O)N(CC)CC)C2)CC1 (centres unmarked) [CBK156159] — higher, 109%
- O=C(NCc1ccc2c(c1)OCO2)N1CCCCC1CO (centres unmarked) [CBK156166] — lower, 89.3%
- O=C(NCc1cccnc1)N1CCCCC1CO (centres unmarked) [CBK156169] — higher, 105%
- O=C(Nc1ccc2c(c1)OCCO2)N1CCCCC1CO (centres unmarked) [CBK156178] — higher, 105%
- O=C(Nc1ccccc1Cl)N1CCCCC1CO (centres unmarked) [CBK156180] — lower, 91.9%
- O=C(NCc1c(Cl)cccc1Cl)N1CCCCC1CO (centres unmarked) [CBK156184] — higher, 99.5%
- NC(=O)c1ccc(NC(=O)N2CCCCC2CO)cc1 (centres unmarked) [CBK156185] — lower, 83%
- O=C(NCC(c1ccccc1)c1ccccc1)N1CCCCC1CO (centres unmarked) [CBK156186] — higher, 93.5%
- COc1ccc(CCNC(=O)N2CCCCC2CO)cc1 (centres unmarked) [CBK156188] — higher, 92.8%
- CC(=O)NCc1cccc(-c2cc(C(=O)O)cnc2-c2ccc(Cl)cc2)c1 [CBK156194] — lower, 90.9%
- O=C(NCc1cccs1)c1ccc(-c2ccc(OC(F)(F)F)cc2)nc1 [CBK156221] — lower, 90%
- O=C(NCCc1ccc(O)cc1)c1ccc(-c2ccc(OC(F)(F)F)cc2)nc1 [CBK156224] — higher, 95.8%
- CCNC(=O)c1ccc(-c2ccc(OC(F)(F)F)cc2)nc1 [CBK156230] — higher, 110%
- CN1CCCC1CCNC(=O)c1ccc(-c2ccoc2)nc1 (centres unmarked) [CBK156255] — higher, 99.8%
- CN1CCN(CCCNC(=O)c2ccc(-c3ccoc3)nc2)CC1 [CBK156257] — higher, 93.3%
- Cc1cnc(CNC(=O)c2ccc(-c3ccoc3)nc2)cn1 [CBK156267] — higher, 109%
- O=C(NCc1ccco1)c1ccc(-c2ccoc2)nc1 [CBK156279] — higher, 105%
- O=C(c1ccc(-c2ccoc2)nc1)N1CCCC1 [CBK156284] — lower, 84.6%
- COc1ccc(NC(=O)NS(=O)(=O)c2sc3ccc(Cl)cc3c2C)cc1OC [CBK156300] — lower, 91.3%
- O=S(=O)(Nc1ccc2[nH]ccc2c1)c1cc(C(F)(F)F)cc(C(F)(F)F)c1 [CBK156330] — higher, 102%
- O=S(=O)(c1ccccc1)n1cc2c3c(cccc31)CN(CCO)C2 [CBK156333T] — higher, 106%
- CCOC(=O)N1CCC(NC(=O)N2CCCC(CO)C2)CC1 (centres unmarked) [CBK156345] — lower, 90.6%
- CSCCCNC(=O)N(CCC#N)C1CCCCC1 [CBK156348] — higher, 104%
- N#CCCN(C(=O)NCc1ccc(Cl)c(Cl)c1)C1CCCCC1 [CBK156349] — lower, 85.5%
- N#CCCN(C(=O)NCc1cccc(C(F)(F)F)c1)C1CCCCC1 [CBK156350] — higher, 96.8%
- N#CCCN(C(=O)NCc1ccc2c(c1)OCO2)C1CCCCC1 [CBK156351] — higher, 98.7%
